# Assay: recombinant UMI read abundance after kanamycin selection (control-corrected) (log10(CPM+1)); higher = more efficient recombination; extreme values may be limits of the assay; sequences stand for … in AGTGCAGAGAAAATCGGCCAGTTTTCTCTGCCTGCAGTCCGCATGCCGTGGGACCCCTTGGGTTCTAACCTGTTGCCTAGATTTATGCAGCGGACTGCCTTTCTCCCAAAGTGATAAACCGG…AGGTTGGTTTCACT; site = the 11-nt donor
# Outline: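 Values are reported as log10(CPM+1), obtained by converting sequencing counts to CPM, averaging replicates and scaling by control-derived factors. The counts came from recombinant UMIs amplified by PCR across the donor–target junction. These UMIs came from a pooled Escherichia coli screen of donor and donor-binding-loop pairs for the IS621 bridge recombinase, plated with IPTG (0.07 mM) plus kanamycin or left unselected, in two replicates each.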
# 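Also: IS621 bridge recombinase in Escherichia coli cells against a fixed T5 target plasmid.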
row,Sequence,recombinant UMI read abundance (log10)
1,GTGGAAACATGGACCGGTTTTCCCGGTAATCCGTATTTGCA (site TTGGAAACTTG),2.14
2,GTGGAAGCATGGACCGGTTTTCCCGGTAATCCGTATTTGTG (site GTGGAAGCTCA),2.35
3,GTGGAAGCATGGACCGGTTTTCCCGGTAATCCGTATTTGTG (site GTGGACGCTCA),0.582
4,GTGGAAGCATGGACCGGTTTTCCCGGTAATCCGTATTTGTG (site GTGGAGGCTCA),1.53
5,GTGGAAGCATGGACCGGTTTTCCCGGTAATCCGTATTTGTG (site GTGGATGCTCA),0.605
6,GTGGAGCCATGGACCGGTTTTCCCGGTAATCCGTATTTGTT (site GTGGAGCCTAA),0.012
7,GTGGAGGCATGGACCGGTTTTCCCGGTAATCCGTATTTGTT (site GTGGAGGCTAA),1.58
8,GTGGAGGCATGGACCGGTTTTCCCGGTAATCCGTATTTGTT (site GTGGAGGCTCA),0.524
9,GTGGAGGCATGGACCGGTTTTCCCGGTAATCCGTATTTGTT (site GTGGAGGCTGA),2.66
10,GTGGAGGCATGGACCGGTTTTCCCGGTAATCCGTATTTGTT (site GTGGAGGCTTA),0.938
11,GTGGATGCATGGACCGGTTTTCCCGGTAATCCGTATTTGGT (site GTGAATGCTAC),2.1
12,GTGGATGCATGGACCGGTTTTCCCGGTAATCCGTATTTGGT (site GTGCATGCTAC),0.00775
13,GTGGATGCATGGACCGGTTTTCCCGGTAATCCGTATTTGGT (site GTGGATGCTAC),2.2
14,GTGGATGCATGGACCGGTTTTCCCGGTAATCCGTATTTGGT (site GTGTATGCTAC),1.03
15,GTGGCGCCATGGACCGGTTTTCCCGGTAATCCGTATTTGTA (site GTGGCGCCTTA),0.00916
16,GTGGCTCCATGGACCGGTTTTCCCGGTAATCCGTATTTGTT (site GTGGCTCCTAA),0.00981
17,GTGGGTACATGGACCGGTTTTCCCGGTAATCCGTATTTGAC (site GTAGGTACTGT),2.16
18,GTGGGTACATGGACCGGTTTTCCCGGTAATCCGTATTTGAC (site GTCGGTACTGT),0
19,GTGGGTACATGGACCGGTTTTCCCGGTAATCCGTATTTGAC (site GTGGGTACTGT),2.91
20,GTGGGTACATGGACCGGTTTTCCCGGTAATCCGTATTTGAC (site GTTGGTACTGT),2.72
21,GTGGGTACATGGACCGGTTTTCCCGGTAATCCGTATTTGTT (site GTGGGTACTAA),1.15
22,GTGGTCGCATGGACCGGTTTTCCCGGTAATCCGTATTTGGC (site GTGGTCGCTGC),2.91
23,GTGGTGGCATGGACCGGTTTTCCCGGTAATCCGTATTTGTG (site GTGGAGGCTCA),0.789

row,Sequence,recombinant UMI read abundance (log10)
1,GTGGTGGCATGGACCGGTTTTCCCGGTAATCCGTATTTGTG (site GTGGCGGCTCA),0.0357
2,GTGGTGGCATGGACCGGTTTTCCCGGTAATCCGTATTTGTG (site GTGGGGGCTCA),0.0222
3,GTGGTGGCATGGACCGGTTTTCCCGGTAATCCGTATTTGTG (site GTGGTGGCTCA),0.992
4,GTGTCCGCATGGACCGGTTTTCCCGGTAATCCGTATTTGGC (site GTGTCCGCTGC),2.26
5,GTGTGGGCATGGACCGGTTTTCCCGGTAATCCGTATTTGAG (site GTGTGGGCTCT),1.21
6,GTGTTACCATGGACCGGTTTTCCCGGTAATCCGTATTTGGT (site GTGTTACCTAC),0
7,GTGTTATCATGGACCGGTTTTCCCGGTAATCCGTATTTGCT (site GTGTTATCTAG),2.87
8,GTTACACCATGGACCGGTTTTCCCGGTAATCCGTATTTGGC (site GTTACACCTGC),0
9,GTTAGAACATGGACCGGTTTTCCCGGTAATCCGTATTTGAC (site GTTAGAACTGA),0.0146
10,GTTAGAACATGGACCGGTTTTCCCGGTAATCCGTATTTGAC (site GTTAGAACTGC),0.0153
11,GTTAGAACATGGACCGGTTTTCCCGGTAATCCGTATTTGAC (site GTTAGAACTGG),0
12,GTTAGAACATGGACCGGTTTTCCCGGTAATCCGTATTTGAC (site GTTAGAACTGT),1.89
13,GTTAGAACATGGACCGGTTTTCCCGGTAATCCGTATTTGGA (site GTTAGAACTAC),0.00435
14,GTTAGAACATGGACCGGTTTTCCCGGTAATCCGTATTTGGA (site GTTAGAACTCC),0.0329
15,GTTAGAACATGGACCGGTTTTCCCGGTAATCCGTATTTGGA (site GTTAGAACTGC),0
16,GTTAGAACATGGACCGGTTTTCCCGGTAATCCGTATTTGGA (site GTTAGAACTTC),0.178
17,GTTAGAGCATGGACCGGTTTTCCCGGTAATCCGTATTTGTG (site GTTAGAGCTCA),1.74
18,GTTAGGACATGGACCGGTTTTCCCGGTAATCCGTATTTGAG (site GTTAGGACTCT),1.83
19,GTTATCCCATGGACCGGTTTTCCCGGTAATCCGTATTTGGC (site GTTATCCCTGC),0
20,GTTCAAGCATGGACCGGTTTTCCCGGTAATCCGTATTTGCA (site GTTCAAGCTTG),1.62
21,GTTCAAGCATGGACCGGTTTTCCCGGTAATCCGTATTTGCA (site GTTCCAGCTTG),0
22,GTTCAAGCATGGACCGGTTTTCCCGGTAATCCGTATTTGCA (site GTTCGAGCTTG),0
23,GTTCAAGCATGGACCGGTTTTCCCGGTAATCCGTATTTGCA (site GTTCTAGCTTG),0

row,Sequence,recombinant UMI read abundance (log10)
1,GTTCGAGCATGGACCGGTTTTCCCGGTAATCCGTATTTGAT (site GTTCGAGCTAT),1.75
2,GTTCGATCATGGACCGGTTTTCCCGGTAATCCGTATTTGCA (site GTTCGAACTTG),0
3,GTTCGATCATGGACCGGTTTTCCCGGTAATCCGTATTTGCA (site GTTCGACCTTG),0
4,GTTCGATCATGGACCGGTTTTCCCGGTAATCCGTATTTGCA (site GTTCGAGCTTG),0.00436
5,GTTCGATCATGGACCGGTTTTCCCGGTAATCCGTATTTGCA (site GTTCGATCTTG),2.08
6,GTTCTCCCATGGACCGGTTTTCCCGGTAATCCGTATTTGCG (site GTTCTCCCTCG),0.002
7,GTTGACACATGGACCGGTTTTCCCGGTAATCCGTATTTGAA (site GTTGACACTTT),0.918
8,GTTGACACATGGACCGGTTTTCCCGGTAATCCGTATTTGGG (site GTTGACACTCC),0.371
9,GTTGAGCCATGGACCGGTTTTCCCGGTAATCCGTATTTGTG (site GTTGAGCCTCA),0.033
10,GTTGAGGCATGGACCGGTTTTCCCGGTAATCCGTATTTGTG (site GTAGAGGCTCA),1.5
11,GTTGAGGCATGGACCGGTTTTCCCGGTAATCCGTATTTGTG (site GTCGAGGCTCA),0.879
12,GTTGAGGCATGGACCGGTTTTCCCGGTAATCCGTATTTGTG (site GTGGAGGCTCA),0.355
13,GTTGAGGCATGGACCGGTTTTCCCGGTAATCCGTATTTGTG (site GTTGAGGCTCA),1.07
14,GTTGATCCATGGACCGGTTTTCCCGGTAATCCGTATTTGGT (site GTTGATCCTAC),0.00442
15,GTTGATCCATGGACCGGTTTTCCCGGTAATCCGTATTTGGT (site GTTGCTCCTAC),0.0151
16,GTTGATCCATGGACCGGTTTTCCCGGTAATCCGTATTTGGT (site GTTGGTCCTAC),0.0158
17,GTTGATCCATGGACCGGTTTTCCCGGTAATCCGTATTTGGT (site GTTGTTCCTAC),0.011
18,GTTGCAACATGGACCGGTTTTCCCGGTAATCCGTATTTGCC (site GTTGCAACTGG),0
19,GTTGCCTCATGGACCGGTTTTCCCGGTAATCCGTATTTGGA (site GTTGCCTCTTC),1.21
20,GTTGCTCCATGGACCGGTTTTCCCGGTAATCCGTATTTGGT (site GTTGATCCTAC),0
21,GTTGCTCCATGGACCGGTTTTCCCGGTAATCCGTATTTGGT (site GTTGCTCCTAC),0.00908
22,GTTGCTCCATGGACCGGTTTTCCCGGTAATCCGTATTTGGT (site GTTGGTCCTAC),0.0466

# From the supplement of paper PMC11208160
